ClCc1ccc(Cl)nc1
Conditions	solubility (mole fraction)
in acetone, 278.85 K	0.0226
in acetone, 281.75 K	0.0249
in acetone, 283.55 K	0.0267
in acetone, 284.65 K	0.0278
in acetone, 288.95 K	0.0325
in acetone, 291.15 K	0.0353
in acetone, 293.65 K	0.0385
in acetone, 295.85 K	0.0415
in acetone, 297.65 K	0.0442
in acetone, 300.35 K	0.0486
in acetone, 302.95 K	0.0528
in acetone, 304.85 K	0.0566
in acetone, 307.05 K	0.0604
in chloroform, 275.85 K	0.0164
in chloroform, 279.35 K	0.0204
in chloroform, 281.55 K	0.0235
in chloroform, 284.35 K	0.028
in chloroform, 287.45 K	0.0339
in chloroform, 290.35 K	0.0405
in chloroform, 292.95 K	0.0473
in chloroform, 295.25 K	0.0546
in chloroform, 297.65 K	0.063
in chloroform, 298.55 K	0.0665
in chloroform, 300.45 K	0.0745
in chloroform, 302.75 K	0.0858
in chloroform, 306.95 K	0.109
in ethanol, 277.65 K	0.00332
in ethanol, 279.75 K	0.00365
in ethanol, 282.05 K	0.00406
in ethanol, 284.75 K	0.00456
in ethanol, 287.35 K	0.00521
in ethanol, 289.65 K	0.00576
in ethanol, 292.65 K	0.00661
in ethanol, 295.35 K	0.00749
in ethanol, 298.35 K	0.00859
in ethanol, 301.85 K	0.0102
in ethanol, 304.15 K	0.0112
in ethanol, 305.85 K	0.012
in ethanol, 307.25 K	0.0127
in ethyl acetate, 278.35 K	0.00447
in ethyl acetate, 280.05 K	0.00488
in ethyl acetate, 281.65 K	0.0053
in ethyl acetate, 284.75 K	0.00619
in ethyl acetate, 286.25 K	0.00667
in ethyl acetate, 288.15 K	0.00731
in ethyl acetate, 290.45 K	0.00825
in ethyl acetate, 292.95 K	0.00939
in ethyl acetate, 296.15 K	0.011
in ethyl acetate, 299.05 K	0.0125
in ethyl acetate, 302.95 K	0.0153
in ethyl acetate, 305.35 K	0.0167
in ethyl acetate, 306.45 K	0.0176
in ethyl acetate, 307.45 K	0.0184
in methanol, 277.25 K	0.00235
in methanol, 281.35 K	0.00277
in methanol, 282.75 K	0.00296
in methanol, 284.35 K	0.00319
in methanol, 288.85 K	0.00392
in methanol, 292.75 K	0.00468
in methanol, 296.05 K	0.00537
in methanol, 299.25 K	0.00607
in methanol, 303.75 K	0.00722
in methanol, 305.35 K	0.00768
in methanol, 306.55 K	0.00803
in toluene, 278.75 K	0.0191
in toluene, 281.55 K	0.0249
in toluene, 283.25 K	0.0293
in toluene, 287.35 K	0.043
in toluene, 288.15 K	0.0464
in toluene, 290.75 K	0.059
in toluene, 292.15 K	0.0671
in toluene, 293.75 K	0.0776
in toluene, 295.45 K	0.0906
in toluene, 297.75 K	0.111
in toluene, 301.65 K	0.158
in toluene, 305.55 K	0.223
in water, 277.75 K	0.000167
in water, 280.25 K	0.000174
in water, 283.75 K	0.000197
in water, 288.35 K	0.000215
in water, 292.15 K	0.000234
in water, 294.25 K	0.000249
in water, 297.65 K	0.000265
in water, 301.25 K	0.000288
in water, 302.95 K	0.000295
in water, 304.25 K	0.000308
in water, 305.85 K	0.00032
in water, 308.75 K	0.000332
in water, 309.15 K	0.00034

Source: BigSolDB 2.1
